Source: US11415513B2, “Method for determining the degree of sensitivity of a strain of fungus to an antifungal agent” (UNIVERSITE GRENOBLE ALPES, priority 2015, dated 2022)
Converted amounts (≈) assume the structure as drawn.

How the values were obtained:
[1] = tested on: strain DSY296 of C. albicans; assay: Etest method (MIC); assay type: cell-based, Candida albicans; settings: RPMI medium plates, 24 h at 35° C.; for MIC: Candida albicans
Experimental: (§1) The Etest® method is a commercial test for determining the sensitivity of a strain, most frequently used routinely in clinical mycology laboratories.
(§2) The Etest® tests were performed according to the manufacturer's instructions. After distributing a standardised Mac Farland 0.5 inoculum (equivalent of […]) over plates of RPMI medium, said plates were incubated for 24 h at 35° C., with the exception of C. glabrata in which case the incubation was extended to 48 h so as to be able to determine the minimum inhibitory concentration (MIC).
(§3) The results of the MICs obtained were interpreted in accordance with the tables of the CLSI (Clinical and Laboratory Standards Institute) and/or of EUCAST (European Committee on Antimicrobial Susceptibility Testing) (Arendrup M C, Cuenca-Estrella M, Lass-Flörl C, Hope W W (2014) Breakpoints for antifungal agents: an update from EUCAST focussing on echinocandins against Candida spp and triazoles against Aspergillus spp. Drug Resist Updat 16(6):81-95. doi:10.1016/j.drup.2014.01.001) (cf. Table 2 taken from Maubon D, Garnaud C, Calandra T, et al. (2014) Resistance of Candida spp. to antifungal drugs in the ICU: where are we now? Intensive Care Med. doi: 10.1007/s00134-014-3404-7) which list the clinical thresholds (CBPs) for the most common species of yeast of the genus Candida as a function of different antifungal agents, or according to the table of epidemiological thresholds (ECVs).

[2] = tested on: strain SC5314 of C. albicans; assay: Etest method (MIC); assay type: cell-based, Candida albicans; settings: RPMI medium plates, 24 h at 35° C.; for MIC: Candida albicans, SC5314
Experimental: as §1, §2, §3

[3] = tested on: strain 8/21 of C. parapsilosis; assay: Etest method (MIC); assay type: cell-based, Candida parapsilosis; settings: RPMI medium plates, 24 h at 35° C.; for MIC: Lodderomyces parapsilosis
Experimental: as §1, §2, §3

[4] = tested on: strain 8/21 of C. parapsilosis; assay: Sensitivity test by HCA microscopy (chitin level, Calcofluor White); assay type: cell-based, Candida parapsilosis; settings: vs cells in the absence of antifungal agent; 6.5 h at 30° C., SC medium; concentration gradient of Table 1
Experimental: The strains of Candida were incubated beforehand at 30° C. overnight in a yeast extract medium—peptone dextrose (YPD) (1% bacto peptone, 0.5% yeast extract, 2% glucose, 1.5% agar).
Yeast colonies were then removed from YPD medium plates and suspended in a 0.9% NaCl saline solution, in which the cell concentration was estimated by optical microscopy using Kova counting slides. […]
A step of acquiring images by automated fluorescence microscopy (ScanR screening station, Olympus), using a 40× lens and a CFW filter, made it possible to obtain 30 images per well so as to capture enough cells to provide statistically significant data. These images were analysed by software (ScanR analysis software, Olympus). Firstly, the background noise was processed so as to improve the contrast between the fluorescence of the yeasts and background noise. […] Segmentation of the fluorescent elements present in each of the acquired images was then performed using an algorithm predefined in the software, making it possible to determine the limit of each element on the basis of the fluorescence intensity of said element. […]
Each element then corresponding to a yeast, it was thus possible, on the basis of these elements predefined beforehand, to define the fluorescence intensity for each of the yeasts, this intensity being directly correlated with the chitin content of their wall. […]

[5] = tested on: strain ATCC®6258 of C. krusei; assay: Etest method (MIC); assay type: cell-based, Candida krusei; settings: RPMI medium plates, 24 h at 35° C.; for MIC: Pichia kudriavzevii, ATCC6258; for phenotype by Etest MIC, interpretation by the EUCAST or CLSI table: fluconazole interpreted by extrapolation of the EUCAST and CLSI data for C. glabrata
Experimental: as §1, §2, §3

[6] = tested on: strain GRE32 of C. krusei; assay: Etest method (MIC); assay type: cell-based, Candida krusei; settings: RPMI medium plates, 24 h at 35° C.; for MIC: Pichia kudriavzevii; for phenotype by Etest MIC, interpretation by the EUCAST or CLSI table: fluconazole interpreted by extrapolation of the EUCAST and CLSI data for C. glabrata
Experimental: as §1, §2, §3

SMILES | MIC [1] | phenotype by Etest MIC, interpretation by the EUCAST and CLSI tables [1] | MIC [2] | phenotype by Etest MIC, interpretation by the EUCAST and CLSI tables [2] | MIC [3] | phenotype by Etest MIC, interpretation by the EUCAST and CLSI tables [3] | increase in the chitin level in the wall of the cells [4] | MIC [5] | phenotype by Etest MIC, interpretation by the EUCAST or CLSI table [5] | MIC [6] | phenotype by Etest MIC, interpretation by the EUCAST or CLSI table [6]
OC(Cn1cncn1)(Cn1cncn1)c1ccc(F)cc1F [fluconazole] | 96 µg/mL (≈ 313 µM) | resistant | 0.125 µg/mL (≈ 0.408 µM) | sensitive | 8 µg/mL (≈ 26.1 µM) | resistant | less than 10% | 64 µg/mL (≈ 209 µM) | resistant | 64 µg/mL (≈ 209 µM) | resistant
C[C@@H](c1ncncc1F)[C@](O)(Cn1cncn1)c1ccc(F)cc1F [voriconazole] | 1 µg/mL (≈ 2.86 µM) | resistant | 0.012 µg/mL (≈ 0.0344 µM) | sensitive | 4 µg/mL (≈ 11.5 µM) | resistant | less than 10% | 1 µg/mL (≈ 2.86 µM) | intermediate | 1 µg/mL (≈ 2.86 µM) | intermediate
